In brackets after ≈: the same amount, converted by molar mass.
Columns and labels:
HEK293 = test: cells; assay type: functional; details: Homo sapiens, ATCC CRL1573, HEK293; ASSAY_TEST Inhibition of Cell Viability; detection method Resazurin; Fluorescence (ex560/em590); MEDIA DMEM with 10% FBS; plate type 384well; TC; CORNING #3712; time 18 hr
Staphylococcus aureus = test: microbe, parasite or virus in culture; details: ATCC 43300, 18 h, ASSAY_TEST Inhibition of Bacterial Growth, detection method Absorption (OD600), MEDIA CAMHB, plate type 384well, NBS, CORNING #3640
Description: Antibacterial activity against Staphylococcus aureus MRSA ATCC 43300 (CO-ADD:GP_020); MIC in CAMBH media, using NBS plates, by OD(600)

Escherichia coli = test: microbe, parasite or virus in culture; details: ATCC 25922, 18 h, ASSAY_TEST Inhibition of Bacterial Growth, detection method Absorption (OD600), MEDIA CAMHB, plate type 384well, NBS, CORNING #3640
Description: Antibacterial activity against Escherichia coli ATCC 25922 (CO-ADD:GN_001); MIC in CAMBH media using NBS plates, by OD(600)

Klebsiella pneumoniae = test: microbe, parasite or virus in culture; details: ATCC 700603, 18 h, ASSAY_TEST Inhibition of Bacterial Growth, detection method Absorption (OD600), MEDIA CAMHB, plate type 384well, NBS, CORNING #3640
Description: Antibacterial activity against Klebsiella pneumoniae MDR ATCC 70063 (CO-ADD:GN_003); MIC in CAMBH media using NBS plates, by OD(600)

Pseudomonas aeruginosa = test: microbe, parasite or virus in culture; details: ATCC 27853, 18 h, ASSAY_TEST Inhibition of Bacterial Growth, detection method Absorption (OD600), MEDIA CAMHB, plate type 384well, NBS, CORNING #3640
Description: Antibacterial activity against Pseudomonas aeruginosa ATCC 27853 (CO-ADD:GN_042); MIC in CAMBH media using NBS plates, by OD(600)

Acinetobacter baumannii = test: microbe, parasite or virus in culture; details: ATCC 19606, 18 h, ASSAY_TEST Inhibition of Bacterial Growth, detection method Absorption (OD600), MEDIA CAMHB, plate type 384well, NBS, CORNING #3640
Description: Antibacterial activity against Acinetobacter baumannii ATCC 19606 (CO-ADD:GN_034); MIC in CAMBH media using NBS plates, by OD600

Candida albicans = test: microbe, parasite or virus in culture; details: ATCC 90028, ASSAY_TEST Inhibition of Fungal Growth, detection method Absorption (OD530), plate type 384well, NBS, CORNING #3640
Description: Antifungal activity against Candida albicans ATCC 90028 (CO-ADD:FG_001); MIC in YNB media using NBS plates, by OD630

Description for Cryptococcus neoformans: Antifungal activity against Cryptococcus neoformans H99 ATCC 208821 (CO-ADD:FG_002); MIC in YNB media using NBS plates, by Resazurin OD(600-570)

SMILES | MIC (Cryptococcus neoformans) | MIC (Staphylococcus aureus) | MIC (Escherichia coli) | MIC (Klebsiella pneumoniae) | MIC (Pseudomonas aeruginosa) | MIC (Acinetobacter baumannii) | MIC (Candida albicans) | CC50 (HEK293)
O=[N+]([O-])c1ccc(-c2ccccc2)c([As](=O)(O)O)c1 | > 10 µM | > 10 µM | > 10 µM | > 10 µM | > 10 µM | > 10 µM | > 10 µM | > 10 µM
CC1(C)CC(=O)CC(C)(C)N1O | > 10 µM | > 10 µM | > 10 µM | > 10 µM | > 10 µM | > 10 µM | > 10 µM | > 10 µM
c1ccc2nc(OCCN3CC3)ccc2c1 | > 10 µM | > 10 µM | > 10 µM | > 10 µM | > 10 µM | > 10 µM | > 10 µM | > 10 µM
CCC(C)c1cnc(CC(C)C)c(=O)n1O (stereo not given) | > 10 µM | > 10 µM | > 10 µM | > 10 µM | > 10 µM | > 10 µM | > 10 µM | > 10 µM
COC1C(OC(=O)c2ccc(C)[nH]2)C(O)C(Oc2ccc3c(O)c(NC(=O)c4ccc(O)c(CC=C(C)C)c4)c(=O)oc3c2Cl)OC1(C)C (stereo not given) | > 10 µM | ≤ 0.0781 µM | > 10 µM | > 10 µM | 10 µM (≈ 6.97 µg/mL) | > 10 µM | > 10 µM | 9.55 µM
Nc1ncnc2c1ncn2C1OC(COS(N)(=O)=O)C(O)C1O (stereo not given) | > 10 µM | 5 µM (≈ 1.73 µg/mL) | > 10 µM | > 10 µM | > 10 µM | > 10 µM | > 10 µM | 0.227 µM
C#CC(c1ccccc1)(c1ccccc1)n1ccnc1 | > 10 µM | > 10 µM | > 10 µM | > 10 µM | > 10 µM | > 10 µM | > 10 µM | > 10 µM
Cc1ccccc1NC(=O)NCCN1CC1 | > 10 µM | > 10 µM | > 10 µM | > 10 µM | > 10 µM | > 10 µM | > 10 µM | > 10 µM
O=C1C=CC(=O)N1c1ccc(I)cc1Cl | > 10 µM | > 10 µM | > 10 µM | > 10 µM | > 10 µM | > 10 µM | > 10 µM | > 10 µM
CO[C@@]12[C@H](COC(N)=O)C3=C(C(=O)C(C)=C(N)C3=O)N1C[C@@H]1N[C@@H]12 [MITOMYCIN] | > 10 µM | 0.156 µM (≈ 0.0523 µg/mL) | 1.25 µM (≈ 0.418 µg/mL) | > 10 µM | 10 µM (≈ 3.34 µg/mL) | 5 µM (≈ 1.67 µg/mL) | > 10 µM | 9.02 µM
CCCCOc1ccc(/N=N\c2ccc(N)nc2N)cn1 | > 10 µM | > 10 µM | > 10 µM | > 10 µM | > 10 µM | > 10 µM | > 10 µM | > 10 µM
O=C(c1cccnc1)C1Cc2ccccc2C1=O (stereo not given) | > 10 µM | > 10 µM | > 10 µM | 5 µM (≈ 1.19 µg/mL) | > 10 µM | > 10 µM | > 10 µM | > 10 µM
CCOC(=O)/C(C#N)=C1\SS/C(=C(/C#N)C(=O)OCC)S1 | > 10 µM | > 10 µM | > 10 µM | > 10 µM | > 10 µM | > 10 µM | > 10 µM | > 10 µM
COC(=O)N1C2CCCCC2=NN(c2ccccc2)N1C(=O)OC (stereo not given) | > 10 µM | > 10 µM | > 10 µM | > 10 µM | > 10 µM | > 10 µM | > 10 µM | > 10 µM
Cc1c(N2CCCC2)cc2c(c1NC(=O)c1ccccc1Cl)C(C)(C)CC2(C)C | > 10 µM | > 10 µM | > 10 µM | > 10 µM | > 10 µM | > 10 µM | > 10 µM | > 10 µM

The next lines start with results.

MIC (Cryptococcus neoformans) | MIC (Staphylococcus aureus) | MIC (Escherichia coli) | MIC (Klebsiella pneumoniae) | MIC (Pseudomonas aeruginosa) | MIC (Acinetobacter baumannii) | MIC (Candida albicans) | SMILES | CC50 (HEK293)
> 10 µM | > 10 µM | > 10 µM | > 10 µM | > 10 µM | > 10 µM | > 10 µM | Cc1ccc([S+]([O-])c2ccc([N+](=O)[O-])c3nonc23)cc1 (stereo not given) | > 10 µM
> 10 µM | > 10 µM | > 10 µM | > 10 µM | > 10 µM | > 10 µM | > 10 µM | O=C(Nc1ccc(C2=NCCN2)cc1)c1ccc(C(=O)Nc2ccc(C3=NCCN3)cc2)c(Cl)c1 | > 10 µM
> 10 µM | > 10 µM | > 10 µM | > 10 µM | > 10 µM | > 10 µM | > 10 µM | Cc1ccc2ccc(C#N)cc2c1O | > 10 µM
> 10 µM | > 10 µM | > 10 µM | > 10 µM | > 10 µM | > 10 µM | > 10 µM | COc1ccccc1/C=C/C(=O)/C=C/c1ccccc1O | 3.95 µM
> 10 µM | > 10 µM | > 10 µM | > 10 µM | > 10 µM | > 10 µM | 10 µM (≈ 2.72 µg/mL) | CN(C)c1n/c(=N/c2cccc(Cl)c2)ss1 | > 10 µM
> 10 µM | > 10 µM | > 10 µM | > 10 µM | > 10 µM | > 10 µM | 10 µM (≈ 2.62 µg/mL) | O=C1N=C(Nc2nc3ccccc3[nH]2)c2ccccc21 | > 10 µM
> 10 µM | > 10 µM | > 10 µM | > 10 µM | > 10 µM | > 10 µM | > 10 µM | O=C1C=C(c2ccccc2)OC(=O)C1C(=O)c1ccccc1 (stereo not given) | > 10 µM
> 10 µM | > 10 µM | 0.156 µM (≈ 0.0509 µg/mL) | > 10 µM | > 10 µM | > 10 µM | > 10 µM | Cn1c(=S)c2nc(SCCN3CCCC3)[nH]c2n(C)c1=O | > 10 µM
> 10 µM | > 10 µM | > 10 µM | > 10 µM | > 10 µM | > 10 µM | 10 µM (≈ 2.26 µg/mL) | CN(C)c1ccc(/N=N/c2ccccn2)cc1 | > 10 µM
> 10 µM | > 10 µM | > 10 µM | > 10 µM | > 10 µM | > 10 µM | > 10 µM | Sc1nc2cc(-c3ccccc3)ccc2o1 | > 10 µM
> 10 µM | > 10 µM | > 10 µM | > 10 µM | > 10 µM | > 10 µM | > 10 µM | SC1=NC2(CCCCCC2)NN1c1ccccc1 | > 10 µM
> 10 µM | > 10 µM | > 10 µM | > 10 µM | > 10 µM | > 10 µM | > 10 µM | N=C(N)NCCCS(=O)(=O)Nc1ccc(Nc2c3ccccc3nc3cc([N+](=O)[O-])ccc23)cc1 | > 10 µM
> 10 µM | > 10 µM | > 10 µM | > 10 µM | > 10 µM | > 10 µM | > 10 µM | Oc1c(/N=N/c2nnn[nH]2)ccc2ccccc12 | > 10 µM
> 10 µM | > 10 µM | > 10 µM | > 10 µM | > 10 µM | > 10 µM | > 10 µM | O=C(/C=C/c1cccnc1)c1ccccc1O | > 10 µM
> 10 µM | > 10 µM | > 10 µM | > 10 µM | > 10 µM | > 10 µM | > 10 µM | CC(C)c1ccc2c(c1)CCC1C(C)(CN)CCCC21C (stereo not given) | 8.3 µM
5 µM (≈ 1.69 µg/mL) | 10 µM (≈ 3.38 µg/mL) | > 10 µM | > 10 µM | > 10 µM | > 10 µM | > 10 µM | Cc1cc(N)c2cc(NC(=O)/C=C\c3ccccc3Cl)ccc2n1 | 2.78 µM
> 10 µM | > 10 µM | > 10 µM | > 10 µM | > 10 µM | > 10 µM | > 10 µM | C1C2CC3C1C3/C2=N\N=C1/C2CC3C(C2)C13 | > 10 µM
> 10 µM | > 10 µM | > 10 µM | > 10 µM | > 10 µM | > 10 µM | 10 µM (≈ 2.02 µg/mL) | Sc1nc2ccc(Cl)cc2s1 | > 10 µM
> 10 µM | > 10 µM | > 10 µM | > 10 µM | > 10 µM | > 10 µM | > 10 µM | Cc1ccnc(NC(c2ccccc2)c2ccc3cccnc3c2O)c1 (stereo not given) | > 10 µM
2.5 µM (≈ 0.638 µg/mL) | > 10 µM | > 10 µM | > 10 µM | > 10 µM | > 10 µM | 10 µM (≈ 2.55 µg/mL) | Oc1ccc2ccccc2c1/N=N/c1nccs1 | > 10 µM
